Data: ChEMBL document CHEMBL4219265, “Piperlongumine derivative, CG-06, inhibits STAT3 activity by direct binding to STAT3 and regulating the reactive oxygen species in DU145 prostate carcinoma cells” (Bioorg Med Chem Lett, 2018)

Experiments:
[1] = biological target: T1, Signal transducer and activator of transcription 3 (Homo sapiens, UniProt P40763); assay: Inhibition of STAT3 phosphorylation in human DU145 cells assessed as ratio of phosphorylated STAT3 protein level to GAPDH protein level at […] after 1 hr by Western blot analysis (reference value: 1); type: cell-based
T1 sequence (P40763 whole entry): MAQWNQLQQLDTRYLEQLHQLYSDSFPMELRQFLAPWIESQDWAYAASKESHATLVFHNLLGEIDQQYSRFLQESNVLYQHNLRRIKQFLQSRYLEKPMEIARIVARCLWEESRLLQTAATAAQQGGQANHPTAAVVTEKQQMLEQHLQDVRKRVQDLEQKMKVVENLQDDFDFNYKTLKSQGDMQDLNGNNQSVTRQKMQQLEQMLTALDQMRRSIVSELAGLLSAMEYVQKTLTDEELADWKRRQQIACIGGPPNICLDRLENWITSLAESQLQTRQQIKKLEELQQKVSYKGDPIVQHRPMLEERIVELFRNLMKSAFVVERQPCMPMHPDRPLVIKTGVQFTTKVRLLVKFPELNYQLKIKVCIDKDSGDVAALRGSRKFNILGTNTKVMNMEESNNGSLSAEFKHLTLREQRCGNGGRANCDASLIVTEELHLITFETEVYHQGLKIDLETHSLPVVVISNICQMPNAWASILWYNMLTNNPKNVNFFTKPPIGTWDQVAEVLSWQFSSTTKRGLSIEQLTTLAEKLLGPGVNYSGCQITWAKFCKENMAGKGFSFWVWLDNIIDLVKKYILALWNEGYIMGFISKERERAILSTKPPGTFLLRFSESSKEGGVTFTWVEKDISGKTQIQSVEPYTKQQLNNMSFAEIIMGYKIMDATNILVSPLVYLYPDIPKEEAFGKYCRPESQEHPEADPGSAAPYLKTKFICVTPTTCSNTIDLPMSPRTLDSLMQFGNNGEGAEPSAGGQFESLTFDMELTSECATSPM

[2] = tested on: DU-145; assay: Effect on total STAT3 protein level in human DU145 cells assessed as ratio of ERK1/2 protein level to GAPDH protein level at 2 mM after 1 hr by Western blot analysis (reference value: 1); type: ADME, cell-based; conditions: du-145, 1 h, 2000 µM
[3] = tested on: DU-145; assay: Growth inhibition of human DU145 cells after 48 hrs by WST-1 assay; type: functional; conditions: DU-145, 48 h
[4] = tested on: PC-3; assay: Growth inhibition of human PC3 cells after 48 hrs by WST-1 assay; type: functional; conditions: PC-3, 48 h
[5] = tested on: LNCaP; assay: Growth inhibition of human LNCAP cells after 48 hrs by WST-1 assay; type: functional
[6] = biological target: T1, Signal transducer and activator of transcription 3; assay: Inhibition of STAT3 phosphorylation at Tyr705 residues in human DU145 cells by Western blot analysis; type: cell-based
[7] = biological target: T1, Signal transducer and activator of transcription 3; assay: Inhibition of STAT3 phosphorylation at Tyr705 residues in human DU145 cells assessed as ratio of phosphorylated STAT3 protein level to GAPDH protein level at 3 uM after 24 hrs by Western blot analysis (reference value: 1); type: cell-based
[8] = tested on: DU-145; assay: Effect on total STAT3 protein level in human DU145 cells assessed as ratio of STAT3 protein level to GAPDH protein level at 1 uM after 24 hrs by Western blot analysis (reference value: 1); type: ADME, cell-based; conditions: du-145, 24 h
[9] = tested on: DU-145; assay: Effect on total STAT3 protein level in human DU145 cells assessed as ratio of STAT3 protein level to GAPDH protein level at 3 uM after 24 hrs by Western blot analysis (reference value: 1); type: ADME, cell-based; conditions: du-145, 24 h
[10] = tested on: PC-3; assay: Growth inhibition of human PC3 cells after 24 to 48 hrs by WST-1 assay; type: functional
[11] = biological target: T1, Signal transducer and activator of transcription 3; assay: Inhibition of STAT3 phosphorylation at Tyr705 residues in human DU145 cells assessed as ratio of phosphorylated STAT3 protein level to GAPDH protein level at 5 uM after 24 hrs by Western blot analysis (reference value: 1); type: cell-based
[12] = tested on: DU-145; assay: Effect on total STAT3 protein level in human DU145 cells assessed as ratio of STAT3 protein level to GAPDH protein level at 10 uM after 24 hrs by Western blot analysis (reference value: 1); type: ADME, cell-based; conditions: du-145, 24 h
[13] = biological target: T1, Signal transducer and activator of transcription 3; assay: Inhibition of STAT3 phosphorylation at Tyr705 residues in human DU145 cells after 24 hrs by Western blot analysis; type: cell-based
[14] = biological target: T1, Signal transducer and activator of transcription 3; assay: Inhibition of STAT3 phosphorylation at Tyr705 residues in human DU145 cells assessed as ratio of phosphorylated STAT3 protein level to GAPDH protein level at 1 uM after 24 hrs by Western blot analysis (reference value: 1); type: cell-based
[15] = biological target: T1, Signal transducer and activator of transcription 3; assay: Inhibition of STAT3 phosphorylation at Tyr705 residues in human DU145 cells assessed as ratio of phosphorylated STAT3 protein level to GAPDH protein level at 7 uM after 24 hrs by Western blot analysis (reference value: 1); type: cell-based
[16] = tested on: DU-145; assay: Effect on total STAT3 protein level in human DU145 cells assessed as ratio of STAT3 protein level to GAPDH protein level at 7 uM after 24 hrs by Western blot analysis (reference value: 1); type: ADME, cell-based; conditions: du-145, 24 h
[17] = tested on: DU-145; assay: Effect on total STAT3 protein level in human DU145 cells assessed as ratio of STAT3 protein level to GAPDH protein level at 5 uM after 24 hrs by Western blot analysis (reference value: 1); type: ADME, cell-based; conditions: du-145, 24 h
[18] = tested on: LNCaP; assay: Growth inhibition of human LNCAP cells after 24 to 48 hrs by WST-1 assay; type: functional
[19] = biological target: T1, Signal transducer and activator of transcription 3; assay: Inhibition of STAT3 phosphorylation at Tyr705 residues in human DU145 cells assessed as ratio of phosphorylated STAT3 protein level to GAPDH protein level at 10 uM after 24 hrs by Western blot analysis (reference value: 1); type: cell-based

Compound	GI50 [3]	GI50 [4]	GI50 [5]	other results
CC(=O)N[C@@H](CS)C(=O)O [ACETYLCYSTEINE]	–	–	–	Ratio [1]: 1; Ratio [2]: 0.8
COc1cc(/C=C/C(=O)N2CCC=CC2=O)cc(OC)c1OC [PIPLARTINE]	7.1 µM	> 10 µM	9.2 µM	inhibition [6]: Dose-dependent effect; Ratio [7]: 0.7; Ratio [8]: 1; Ratio [9]: 1.1; GI50 [10]: > 10 µM; Ratio [11]: 0.7; Ratio [12]: 0.9; IC50 [13]: 7 µM; Ratio [14]: 0.8; Ratio [15]: 0.5; Ratio [16]: 1; Ratio [17]: 1; GI50 [18]: > 10 µM; Ratio [19]: 0.3
C=C(C)C(=O)NC(=O)/C=C/c1cc(OC)c(OC)c(OC)c1	8.6 µM	8.2 µM	10 µM	–

The next lines start with results.

GI50 [3]	GI50 [4]	GI50 [5]	Compound	other results
4.2 µM	> 10 µM	10 µM	C=C(C)C(=O)N(Cc1ccccc1C)C(=O)/C=C/c1cc(OC)c(OC)c(OC)c1	–
2.3 µM	7.3 µM	> 10 µM	C#CCN(C(=O)/C=C/c1cc(OC)c(OC)c(OC)c1)C(=O)C(=C)C	–
5.7 µM	> 10 µM	10 µM	C=C(C)C(=O)N(Cc1cccc(Br)c1)C(=O)/C=C/c1cc(OC)c(OC)c(OC)c1	–
5.6 µM	> 10 µM	> 10 µM	C=C(C)C(=O)N(C)C(=O)/C=C/c1cc(OC)c(OC)c(OC)c1	–
